Results: patent publication US4296032A (priority 1979, dated 1981)

Columns and labels:
Format in all cases: cell-based
[1] = system: Klebsiella aerogenes E70; test: MIC of ampicillin in the presence of the inhibitor, Klebsiella aerogenes E70
Description: (§1) The MIC of ampicillin was determined in the presence of the pivaloyloxymethyl ester of 6-β-bromopenicillanic acid (inhibitor).

[2] = system: Proteus sp. C889; test: MIC of ampicillin in the presence of the inhibitor, Proteus sp. C889
Description: as §1

[3] = system: Staph. aureus Russell; test: MIC of ampicillin in the presence of the inhibitor, Staph. aureus Russell
Description: as §1

[4] = system: E. coli JT. 39; test: MIC of ampicillin in the presence of the inhibitor, E. coli JT. 39
Description: as §1

Question: CC(C)(C)C(=O)OCOC(=O)[C@@H]1N2C(=O)[C@@H](Br)[C@H]2SC1(C)C [pivaloyloxymethyl 6β-bromopenicillanate] was tested. Which “MIC of Ampicillin” value ([1]; inhibitor conc. 5 μg/ml) did it give?
Answer: The value was 12.5 µg/mL.

Question: And the “MIC of Ampicillin” value ([1]; inhibitor conc. 20 μg/ml)?
Answer: Its value is 6.2 µg/mL.

Question: What about the “MIC of Ampicillin” value ([2]; inhibitor conc. 5 μg/ml) of the same compound?
Answer: The value was 31 µg/mL.

Question: What about the “MIC of Ampicillin” value ([2]; inhibitor conc. 20 μg/ml) of the same compound?
Answer: The value was 8 µg/mL.

Question: What about the “MIC of Ampicillin” value ([3]; inhibitor conc. 5 μg/ml) of the same compound?
Answer: Its value is 3.1 µg/mL.

Question: And the “MIC of Ampicillin” value ([3]; inhibitor conc. 20 μg/ml)?
Answer: Its value is 0.78 µg/mL.

Question: And the “MIC of Ampicillin” value ([4]; inhibitor conc. 5 μg/ml)?
Answer: The value was 4 µg/mL.

Question: And the “MIC of Ampicillin” value ([4]; inhibitor conc. 20 μg/ml)?
Answer: Its value is 2 µg/mL.
